Laboratory results from PMC5152921, “Evolutionary and Functional Diversification of the Vitamin D Receptor-Lithocholic Acid Partnership” (PLoS ONE, 2016).

Legend:
Skate VDR = biological target: T1, Skate VDR (Leucoraja erinacea, UniProt A0A088GDQ7); assay: Transient transactivation assay (XREM-Luc, HepG2); format: cell-based; settings: 100 μM LCA
T1 sequence (A0A088GDQ7 1-434): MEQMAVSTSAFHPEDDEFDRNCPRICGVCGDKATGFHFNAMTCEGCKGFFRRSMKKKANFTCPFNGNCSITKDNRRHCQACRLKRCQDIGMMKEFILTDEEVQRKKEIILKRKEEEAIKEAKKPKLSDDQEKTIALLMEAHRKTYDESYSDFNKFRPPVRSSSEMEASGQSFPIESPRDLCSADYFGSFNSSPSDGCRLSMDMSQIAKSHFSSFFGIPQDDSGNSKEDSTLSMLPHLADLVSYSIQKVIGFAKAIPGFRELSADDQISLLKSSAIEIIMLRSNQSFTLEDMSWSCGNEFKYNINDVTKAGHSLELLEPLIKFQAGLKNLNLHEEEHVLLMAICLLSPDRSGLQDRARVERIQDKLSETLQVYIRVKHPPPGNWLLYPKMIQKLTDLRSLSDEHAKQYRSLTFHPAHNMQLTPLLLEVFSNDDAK
T1 sequence (P19793 1-462 partner): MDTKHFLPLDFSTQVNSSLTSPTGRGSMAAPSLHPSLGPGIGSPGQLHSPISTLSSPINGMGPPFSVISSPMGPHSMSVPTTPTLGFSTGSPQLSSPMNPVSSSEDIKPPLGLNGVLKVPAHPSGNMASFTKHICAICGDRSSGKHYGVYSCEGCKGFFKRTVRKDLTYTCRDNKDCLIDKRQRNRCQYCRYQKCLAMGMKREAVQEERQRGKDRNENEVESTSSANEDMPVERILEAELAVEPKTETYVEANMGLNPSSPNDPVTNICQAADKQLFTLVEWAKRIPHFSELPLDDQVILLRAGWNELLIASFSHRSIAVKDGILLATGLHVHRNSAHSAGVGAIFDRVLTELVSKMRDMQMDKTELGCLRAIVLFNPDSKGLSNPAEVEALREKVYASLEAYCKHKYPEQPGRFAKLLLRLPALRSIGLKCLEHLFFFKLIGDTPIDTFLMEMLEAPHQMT
Method: HepG2 cells (American Type Culture Collection #HB-8065) were cultured in T75 flasks with vented caps (Corning Life Sciences, Corning, NY) using Minimum Essential Medium (MEM) with phenol red supplemented with 10% fetal bovine serum, 1 mM sodium pyruvate, and 1X MEM non-essential amino acids. Cells were maintained following standard protocols in a 5% CO2 incubator set at 37°C, and split when 80–90% confluent.
For the transient transactivation assays, HepG2 cells were seeded in 96-well tissue culture plates at a density of 2.5x10^4 cells per well in complete phenol red-free MEM, and allowed to recover overnight. Transfections were performed the following day using Lipofectamine 2000 (Life Technologies, Grand Island, NY) as described previously. For functional comparisons, 89.7 ng/well of full-length pSG5-VDR was co-transfected with 19.2 ng/well human XREM-Luc reporter and 4.5 ng/well of pRL-CMV as an internal luciferase control. Coregulator studies included the addition of 18.3 ng/well of human coregulators (pCDNA-RXRWT, pCDNA-RXRAF2, pSG5-SRC1, pSG5-GRIP1 or pSG5-ACTR) where indicated. […] Controls include 120 nM 1,25D3 as a positive control, and ethanol as a vehicle control. Twenty-four hours post-exposure cells were tested for luciferase activity using the Dual-Glo Luciferase Assay System (Promega Corporation, Madison, WI) according to the manufacturer’s protocols. Luciferase data were first normalized to the pRL-CMV internal luciferase control. […] To calculate the impact of coregulators on VDR transactivation, VDR response in the presence of coregulators was normalized to VDR alone. All experiments were repeated 3 times and conducted as groups of 4 replicate wells. VDR response in the absence of coregulators was analyzed using a 1-way ANOVA followed by Dunnett’s multiple comparisons test. To examine the effects of different coregulators on VDR activation, data were analyzed using a 2-way ANOVA followed by Bonferroni’s multiple comparisons test in GraphPad Prism (GraphPad Inc, San Diego, CA).

Zebrafish VDRβ = biological target: T2, Zebrafish VDRβ (Danio rerio, UniProt Q1L673); assay: Mammalian 2-hybrid assay (VDR-coregulator interaction, HepG2); format: cell-based; set-up: expressed in transfected cells; host or cells: HepG2; settings: 100 μM LCA
T2 sequence (Q1L673 1-422): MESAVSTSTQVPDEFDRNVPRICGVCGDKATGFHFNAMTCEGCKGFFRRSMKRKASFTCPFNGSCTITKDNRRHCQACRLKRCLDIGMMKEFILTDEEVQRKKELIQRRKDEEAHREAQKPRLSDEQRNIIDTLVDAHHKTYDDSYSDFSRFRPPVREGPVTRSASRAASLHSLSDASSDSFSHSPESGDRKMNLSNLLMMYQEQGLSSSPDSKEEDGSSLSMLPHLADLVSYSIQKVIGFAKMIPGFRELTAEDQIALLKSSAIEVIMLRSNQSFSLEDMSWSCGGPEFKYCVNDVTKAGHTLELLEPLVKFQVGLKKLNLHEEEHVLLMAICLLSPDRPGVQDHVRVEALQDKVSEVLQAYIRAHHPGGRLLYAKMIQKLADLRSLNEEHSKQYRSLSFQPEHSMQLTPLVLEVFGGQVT
Source text: Prey constructs included full-length VDRs fused to the herpes simplex VP16 activation domain (pVP16-VDR). Bait constructs consisted of either full-length wild-type human RXR (pM-RXRWT), a truncated human RXR mutant (pM-RXRAF2), or the defined NR box of each member of the SRC/p160 family (pM-SRC1_241-386, pM-GRIP1_479-767, or pM-ACTR392-1005) fused to the yeast Gal4 DNA-binding domain. Reporters included the Gal4 luciferase reporter (5xGal4-TATA-Luc) and pRL-CMV as an internal luciferase control.
HepG2 cells were seeded into 96-well tissue culture plates as described above and transfected with Lipofectamine 2000 the following day. Each well received 33.6 ng pVP16-VDR, 33.6 ng pM-coregulator (where indicated), 126.6 ng 5XGal4-TATA-Luc, and 3 ng pRL-CMV. […] Positive controls were treated with 1,25D3 and vehicle controls were treated with ethanol. Luciferase activity was measured 24 hours post-exposure using the Dual-Glo Luciferase Assay System described above. Raw luciferase data were normalized to the pRL-CMV luciferase control. VDR-coregulator response was normalized to the pVP16-VDR in the absence of bait constructs. Results were analyzed using a two-way ANOVA followed by Bonferroni’s multiple comparisons test in Prism (GraphPad Inc, San Diego, CA). All experiments were replicated 3 times and conducted as groups of 4 replicate wells.

## C[C@H](CCC(=O)O)[C@H]1CC[C@H]2[C@@H]3CC[C@@H]4C[C@H](O)CC[C@]4(C)[C@H]3CC[C@]12C [LCA, 5β-cholanic acid-3α-ol]
Skate VDR; co-transfected human RXRWT, vs VDR alone
  Effect of exogenous human RXRWT on VDR transactivation: significantly enhanced transactivation
Skate VDR; not significantly different from RXRWT individually
  Effect of RXRWT+SRC1 or RXRWT+GRIP1 on VDR transactivation: Enhanced VDR transactivation was also observed
Zebrafish VDRβ; bait human RXRWT, presence and absence of SRC1
  VDR-RXRWT interaction (heterodimerization): not observed
Zebrafish VDRβ; cotransfection of RXRWT
  VDR-SRC1 interaction: strong VDR-SRC1 interactions
